Consider two molecules from ChEMBL document CHEMBL1135700, “Design, synthesis and activity of ascorbic acid prodrugs of nipecotic, kynurenic and diclophenamic acids, liable to increase neurotropic activity” (2002).

Series [1] addresses Solute carrier family 23 member 2 (Homo sapiens) (UniProt Q9UGH3). Conditions: 120 uM.
Description: [14C]- AA uptake mediated by sodium-dependent ascorbate transporters, SVCT2 measured as Michaelis-Menten constant (Kt) at a concentration of 120 uM
The target is the same in series [2]. Conditions: 60 uM.
Description: [14C]- AA uptake mediated by sodium-dependent ascorbate transporters, SVCT2 measured as Michaelis-Menten constant (Kt) at a concentration of 60 uM
For series [3] the target is unchanged. Conditions: 6 uM.
Description: [14C]- AA uptake mediated by sodium-dependent ascorbate transporters, SVCT2 measured as Michaelis-Menten constant (Kt) at a concentration of 6 uM
Series [4] shares this target. Conditions: 12 uM.
Description: [14C]- AA uptake mediated by sodium-dependent ascorbate transporters, SVCT2 measured as Michaelis-Menten constant (Kt) at a concentration of 12 uM
For series [5] the target is unchanged. Conditions: 24 uM.
Description: [14C]- AA uptake mediated by sodium-dependent ascorbate transporters, SVCT2 measured as Michaelis-Menten constant (Kt) at a concentration of 24 uM
The test system of series [6] is O=C(O)Cc1ccccc1Nc1c(Cl)cccc1Cl. Conditions: 24 uM.
Description: ([14C]- AA) and its uptake mediated by sodium-dependent ascorbate transporters, SVCT2 measured as Maximum velocity (Vmax) at concentration of 24 uM
The subject of series [7] is O=C(O)Cc1ccccc1Nc1c(Cl)cccc1Cl. Conditions: 12 uM.
Description: ([14C]- AA) and its uptake mediated by sodium-dependent ascorbate transporters, SVCT2 measured as Maximum velocity (Vmax) at concentration of 12 uM
Series [8] has as its system O=C(O)Cc1ccccc1Nc1c(Cl)cccc1Cl. Conditions: 6 uM.
Description: ([14C]- AA) and its uptake mediated by sodium-dependent ascorbate transporters, SVCT2 measured as Maximum velocity (Vmax) at concentration of 6 uM
The test system of series [9] is O=C(O)Cc1ccccc1Nc1c(Cl)cccc1Cl. Conditions: 120 uM.
Description: ([14C]- AA) and its uptake mediated by sodium-dependent ascorbate transporters, SVCT2 measured as Maximum velocity (Vmax) at concentration of 120 uM
The subject of series [10] is O=C(O)Cc1ccccc1Nc1c(Cl)cccc1Cl. Conditions: 60 uM.
Description: ([14C]- AA) and its uptake mediated by sodium-dependent ascorbate transporters, SVCT2 measured as Maximum velocity (Vmax) at concentration of 60 uM

As to `O=C(O)Cc1ccccc1Nc1c(Cl)cccc1Cl`, the Kt was determined as 28 µM in [1]; 29 µM in [2]; 32 µM in series [3]; 29 µM in [4]; 31 µM in series [5].

Regarding “Solute carrier family 23 member 2 (Homo sapiens), Q9UGH3”, the Vmax (nM hr-1 (10e6*cells)-1) was 1.4 in series [6]; 2 in [7]; 3.1 in [8]; 0.26 in [9]; 0.49 in [10].
